“And” between values parts separate entries of the source, which are not always exact repeats. Equal values may be shown once.
Test: Phase 1a single ascending dose study: UV-4 plasma concentrations and PK parameters (LC-MS/MS, noncompartmental)
Type: in vivo
Details: for CONCENTRATION UV4: human plasma
Description: UV-4 ((2R,3R,4R,5S)-2-(hydroxymethyl)-1-(9-methoxynonyl)piperidine-3,4,5-triol, also called N-(9’-methoxynonyl)-1-deoxynojirimycin, or MON-DNJ) hydrochloride was evaluated in a first-in-human, randomized, single-center, double-blind, placebo-controlled, parallel group, single ascending dose Phase 1a clinical trial in healthy subjects (Figs 1 and 2, ClinicalTrials.gov Identifier NCT02061358 https://clinicaltrials.gov/ct2/show/NCT02061358). The primary objective was to determine the safety and tolerability of a single-ascending oral dose of UV-4 hydrochloride (Fig 3). […] The secondary objective was to determine PK parameters describing absorption and elimination of UV-4 following a single oral dose of UV-4 hydrochloride. Eight cohorts of eight subjects each were enrolled and completed the study. In each cohort, six subjects received UV-4 as the hydrochloride; two received placebo. Subjects were screened against study eligibility criteria up to four weeks (Days -28 to -2) before admission to the clinic (Day -1). Dosing was performed on an inpatient basis. Subjects remained in clinic for 48 hours post-dosing for PK sample collection and safety assessments and were discharged from the clinic on Day 3. Subjects returned to the clinic on Day 4 for additional safety assessments, then again on Day 9 ± 1 for a final follow-up visit.
Eligible subjects were healthy males and females, age 18–45 years, with a body mass index between 18 and 30 kg/m^2 inclusive and a minimum body weight of 60 kg. Subjects were considered healthy based on medical history, physical exam, vital signs, 12-lead electrocardiogram (ECG), clinical laboratory tests (hematology, blood chemistry, urinalysis), viral serology, and drug and alcohol screening. Male and female subjects of childbearing potential were required to use adequate contraception over the course of the clinical trial. […] Only subjects who met all inclusion and none of the exclusion criteria prior to administration of the investigational product were enrolled into the study (no exemptions were granted). A total of 64 subjects were enrolled (eight cohorts of eight subjects each). In each of the eight cohorts, six subjects were randomized to receive a single dose of UV-4 (3 to 1000 mg, depending on cohort) as the hydrochloride salt, and two subjects to receive placebo. Cohort size of six active subjects was based on analysis that increasing cohort size above six in a first-in-human study gains little in the ability to observe a drug induced event, and results in observing more events that are not related to study drug. Two of the eight subjects in each cohort (sentinel subjects; one active and one placebo) received their doses at least 48 h before the remaining subjects in each cohort.
On each day of use, bulk drug substance (UV-4B for solubilization, SAI Life Sciences Ltd. Telangana, India) was removed from a single-use container, weighed at the study center, and solubilized in 20 mL sterile water for injection (SWFI) (Hospira Inc. Illinois, United States of America). Weight of solid drug substance was converted to dose of UV-4 by applying purity and salt correction factor per pharmacy manual when preparing the dosing solution. UV-4B solution was administered orally with 10 mL of taste-masking agent, OraSweet-SF (Paddock Laboratories LLC, Minneapolis, United States of America) in a total volume of 30 mL, to assist in maintaining study blinding. Placebo was SWFI (20 mL) plus OraSweet-SF (10 mL). Concentrations and doses were calculated and expressed as the active free base form, UV-4. This methodology is consistent with USP<1121>, which recommends that the strength of a drug product or preparation is expressed in terms of the active moiety. Following consumption of active or placebo solution, the dosing container was rinsed with 50 mL of tap water also consumed by subjects. […]

**Q.** With COCCCCCCCCCN1C[C@H](O)[C@@H](O)[C@H](O)[C@H]1CO [UV4] as the compound, how does the “CONCENTRATION UV4 in human plasma” value (Cohort 7, nominal day 1, nominal hour 0, individual subjects) read?
**A.** <LLOQ (0.500) ng/mL

**Q.** What about the “CONCENTRATION UV4 in human plasma” value (Cohort 7, nominal day 1, nominal hour 0, subject with all samples <LLOQ) of the same compound?
**A.** <LLOQ (0.500) ng/mL

**Q.** What about the “CONCENTRATION UV4 in human plasma” value (Cohort 7, nominal day 1, nominal hour 0.5, individual subjects) of the same compound?
**A.** 8420 ng/mL and 5960 ng/mL and 5510 ng/mL and 13200 ng/mL and 9650 ng/mL

**Q.** What about the “CONCENTRATION UV4 in human plasma” value (Cohort 7, nominal day 1, nominal hour 0.5, subject with all samples <LLOQ) of the same compound?
**A.** <LLOQ (0.500) ng/mL

**Q.** What about the “CONCENTRATION UV4 in human plasma” value (Cohort 7, nominal day 1, nominal hour 1, individual subjects) of the same compound?
**A.** 8390 ng/mL and 11600 ng/mL and 8700 ng/mL and 11700 ng/mL and 8870 ng/mL

**Q.** What about the “CONCENTRATION UV4 in human plasma” value (Cohort 7, nominal day 1, nominal hour 1, subject with all samples <LLOQ) of the same compound?
**A.** <LLOQ (0.500) ng/mL

**Q.** And the “CONCENTRATION UV4 in human plasma” value (Cohort 7, nominal day 1, nominal hour 1.5, individual subjects)?
**A.** 7250 ng/mL and 7490 ng/mL and 5760 ng/mL and 7510 ng/mL and 6190 ng/mL

**Q.** What about the “CONCENTRATION UV4 in human plasma” value (Cohort 7, nominal day 1, nominal hour 1.5, subject with all samples <LLOQ) of the same compound?
**A.** <LLOQ (0.500) ng/mL

**Q.** And the “CONCENTRATION UV4 in human plasma” value (Cohort 7, nominal day 1, nominal hour 2, individual subjects)?
**A.** 5560 ng/mL and 6260 ng/mL and 4660 ng/mL and 6160 ng/mL and 5490 ng/mL

**Q.** What about the “CONCENTRATION UV4 in human plasma” value (Cohort 7, nominal day 1, nominal hour 2, subject with all samples <LLOQ) of the same compound?
**A.** <LLOQ (0.500) ng/mL

**Q.** What about the “CONCENTRATION UV4 in human plasma” value (Cohort 7, nominal day 1, nominal hour 2.5, individual subjects) of the same compound?
**A.** 4270 ng/mL and 6030 ng/mL and 3950 ng/mL and 4710 ng/mL and 4800 ng/mL

**Q.** And the “CONCENTRATION UV4 in human plasma” value (Cohort 7, nominal day 1, nominal hour 2.5, subject with all samples <LLOQ)?
**A.** <LLOQ (0.500) ng/mL

**Q.** And the “CONCENTRATION UV4 in human plasma” value (Cohort 7, nominal day 1, nominal hour 3, individual subjects)?
**A.** 3650 ng/mL and 5660 ng/mL and 3610 ng/mL and 4080 ng/mL and 4540 ng/mL

**Q.** And the “CONCENTRATION UV4 in human plasma” value (Cohort 7, nominal day 1, nominal hour 3, subject with all samples <LLOQ)?
**A.** <LLOQ (0.500) ng/mL

**Q.** What about the “CONCENTRATION UV4 in human plasma” value (Cohort 7, nominal day 1, nominal hour 4, individual subjects) of the same compound?
**A.** 2230 ng/mL and 3760 ng/mL and 2630 ng/mL and 3120 ng/mL and 3370 ng/mL

**Q.** What about the “CONCENTRATION UV4 in human plasma” value (Cohort 7, nominal day 1, nominal hour 4, subject with all samples <LLOQ) of the same compound?
**A.** <LLOQ (0.500) ng/mL

**Q.** What about the “CONCENTRATION UV4 in human plasma” value (Cohort 7, nominal day 1, nominal hour 6, individual subjects) of the same compound?
**A.** 1120 ng/mL and 1930 ng/mL and 1770 ng/mL and 1610 ng/mL and 1730 ng/mL

**Q.** What about the “CONCENTRATION UV4 in human plasma” value (Cohort 7, nominal day 1, nominal hour 6, subject with all samples <LLOQ) of the same compound?
**A.** <LLOQ (0.500) ng/mL

**Q.** And the “CONCENTRATION UV4 in human plasma” value (Cohort 7, nominal day 1, nominal hour 9, individual subjects)?
**A.** 429 ng/mL and 642 ng/mL and 790 ng/mL and 588 ng/mL and 656 ng/mL

**Q.** What about the “CONCENTRATION UV4 in human plasma” value (Cohort 7, nominal day 1, nominal hour 9, subject with all samples <LLOQ) of the same compound?
**A.** <LLOQ (0.500) ng/mL

**Q.** What about the “CONCENTRATION UV4 in human plasma” value (Cohort 7, nominal day 1, nominal hour 12, individual subjects) of the same compound?
**A.** 184 ng/mL and 254 ng/mL and 352 ng/mL and 266 ng/mL and 301 ng/mL

**Q.** What about the “CONCENTRATION UV4 in human plasma” value (Cohort 7, nominal day 1, nominal hour 12, subject with all samples <LLOQ) of the same compound?
**A.** <LLOQ (0.500) ng/mL

**Q.** And the “CONCENTRATION UV4 in human plasma” value (Cohort 7, nominal day 1, nominal hour 18, individual subjects)?
**A.** 47.6 ng/mL and 69.6 ng/mL and 82.9 ng/mL and 80.3 ng/mL and 78.0 ng/mL

**Q.** And the “CONCENTRATION UV4 in human plasma” value (Cohort 7, nominal day 1, nominal hour 18, subject with all samples <LLOQ)?
**A.** <LLOQ (0.500) ng/mL

**Q.** What about the “CONCENTRATION UV4 in human plasma” value (Cohort 7, nominal day 2, nominal hour 24, individual subjects) of the same compound?
**A.** 58.7 ng/mL and 27.8 ng/mL and 38.9 ng/mL and 46.4 ng/mL and 45.6 ng/mL and 40.8 ng/mL

**Q.** What about the “CONCENTRATION UV4 in human plasma” value (Cohort 7, nominal day 2, nominal hour 24, subject with all samples <LLOQ) of the same compound?
**A.** <LLOQ (0.500) ng/mL

**Q.** What about the “CONCENTRATION UV4 in human plasma” value (Cohort 7, nominal day 2, nominal hour 36, individual subjects) of the same compound?
**A.** 17.4 ng/mL and 8.03 ng/mL and 10.9 ng/mL and 14.8 ng/mL and 12.7 ng/mL

**Q.** What about the “CONCENTRATION UV4 in human plasma” value (Cohort 7, nominal day 2, nominal hour 36, subject with all samples <LLOQ) of the same compound?
**A.** <LLOQ (0.500) ng/mL

**Q.** What about the “CONCENTRATION UV4 in human plasma” value (Cohort 7, nominal day 3, nominal hour 48, individual subjects) of the same compound?
**A.** 7.94 ng/mL and 3.58 ng/mL and 4.75 ng/mL and 6.57 ng/mL and 8.76 ng/mL and 6.60 ng/mL

**Q.** What about the “CONCENTRATION UV4 in human plasma” value (Cohort 7, nominal day 3, nominal hour 48, subject with all samples <LLOQ) of the same compound?
**A.** <LLOQ (0.500) ng/mL

**Q.** What about the “CONCENTRATION UV4 in human plasma” value (Cohort 8, nominal day 1, nominal hour 0, subjects with all samples <LLOQ) of the same compound?
**A.** <LLOQ (0.500) ng/mL

**Q.** What about the “CONCENTRATION UV4 in human plasma” value (Cohort 8, nominal day 1, nominal hour 0.5, subjects with all samples <LLOQ) of the same compound?
**A.** <LLOQ (0.500) ng/mL

**Q.** And the “CONCENTRATION UV4 in human plasma” value (Cohort 8, nominal day 1, nominal hour 1, subjects with all samples <LLOQ)?
**A.** <LLOQ (0.500) ng/mL

**Q.** And the “CONCENTRATION UV4 in human plasma” value (Cohort 8, nominal day 1, nominal hour 1.5, subjects with all samples <LLOQ)?
**A.** <LLOQ (0.500) ng/mL

**Q.** And the “CONCENTRATION UV4 in human plasma” value (Cohort 8, nominal day 1, nominal hour 2, subjects with all samples <LLOQ)?
**A.** <LLOQ (0.500) ng/mL

**Q.** And the “CONCENTRATION UV4 in human plasma” value (Cohort 8, nominal day 1, nominal hour 2.5, subjects with all samples <LLOQ)?
**A.** <LLOQ (0.500) ng/mL

**Q.** What about the “CONCENTRATION UV4 in human plasma” value (Cohort 8, nominal day 1, nominal hour 3, subjects with all samples <LLOQ) of the same compound?
**A.** <LLOQ (0.500) ng/mL

**Q.** What about the “CONCENTRATION UV4 in human plasma” value (Cohort 8, nominal day 1, nominal hour 4, subjects with all samples <LLOQ) of the same compound?
**A.** <LLOQ (0.500) ng/mL

**Q.** What about the “CONCENTRATION UV4 in human plasma” value (Cohort 8, nominal day 1, nominal hour 6, subjects with all samples <LLOQ) of the same compound?
**A.** <LLOQ (0.500) ng/mL

**Q.** And the “CONCENTRATION UV4 in human plasma” value (Cohort 8, nominal day 1, nominal hour 9, subjects with all samples <LLOQ)?
**A.** <LLOQ (0.500) ng/mL

**Q.** And the “CONCENTRATION UV4 in human plasma” value (Cohort 8, nominal day 1, nominal hour 12, subjects with all samples <LLOQ)?
**A.** <LLOQ (0.500) ng/mL

**Q.** And the “CONCENTRATION UV4 in human plasma” value (Cohort 8, nominal day 1, nominal hour 18, subjects with all samples <LLOQ)?
**A.** <LLOQ (0.500) ng/mL

**Q.** What about the “CONCENTRATION UV4” value (Cohort 1, nominal day 1, nominal hour 0) of the same compound?
**A.** <LLOQ (0.500) ng/mL

**Q.** And the “CONCENTRATION UV4” value (Cohort 1, nominal day 3, nominal hour 48)?
**A.** <LLOQ (0.500) ng/mL
